Measured values from patent US12016834B2, “Small molecule inhibitors of SLC25A1” (GEORGETOWN UNIVERSITY, priority 2017, dated 2024).

Columns and labels:
H1299 spheres = assay: Cell cycle analysis of spheres; format: cell-based, human; settings: after three days of treatment
Experimental: (§1) Flow cytometry. Tumor cells were trypsinized and washed in 1×PBS. The cells were then stained with the antibodies of choice: CD166-PE (Biolegend), CD133-647 (Biolegend), or CD44 (Biolegend), in 1% BAS-PBS. The cell cycles of monolayers or spheres of the cells were analyzed by fixing the cells in cold 75% ethanol. The annexin V (Biolegend) and propidium iodide (Biolegend) experiments were carried out.

MP1 cells [1] = assay: Tumor xenograft in immuno-compromised mice; format: in vivo
Experimental: (§2) Mice and treatments. To produce tumor xenografts, 5×10^6 cells derived from either monolayer cultures or GMSC expanded spheres were dissociated with Accutase, resuspended in PBS, and injected subcutaneously in the flanks of female balb athymic mice. Once detectable tumors started to form, their sizes were measured with a caliper in three dimensions and mice were randomized in the different treatment groups. […] Cisplatin was administered at 26 mg/kg every three or four days. AZD9291 was administered at 25/mg/Kg every 3 days. Serial measurements were made every day after the identification of the initial tumor mass to determine growth curves in vivo. Tumor volume was calculated using the formula for a prolate spheroid: volume=[…], where a is the width and b is the length. All animals were sacrificed when the tumors exceeded 1.5 cm. At the completion of experiments, tumors were excised, weighed, and the statistical significances of differences in tumor volume were assessed. Animals were monitored once a week for the presence of signs of disease, particularly neurological disturbances or weight loss, and they were weighed periodically.
(§3) Statistics. For the animal studies, power calculations for each treatment group were first determined. The number of animals was calculated to detect a 50% difference at alpha=0.05 and power=0.8. Statistical significance was assessed using both unpaired, two-tailed Student t test, and analysis of variance (ANOVA). Significant differences are indicated using the standard […] scale (P<0.05, significant; P<0.01, highly significant; P<0.001, extremely significant).

MP2 cells = assay: Tumor xenograft in immuno-compromised mice; format: in vivo; settings: co-treatment with AZD9291, relative to AZD9291 alone
Experimental: as §2, §3

MP1 tumor spheres = assay: Spheroid-based matrix invasion assay (invadopodia); format: cell-based, human; settings: spheres embedded in geltrex
Experimental: Invadopodia measurements. After embedding the spheres in a 3D matrix, their extent of invasion was monitored over […]. Using an inverted microscope set at a magnification of 20×, images of the spheres were obtained at 0 hours, 24 hours, and 48 hours after plating. Analysis for invasion was done using ‘imageJ’ by NIH. The area of invasion was measured by sketching an outline around the spheres using the freehand draw tool. The ‘measure’ tool in ‘Analyze’ on the top menu calculated the area for the selected spheroid. The areas of just the spheres (inner area) and the area of the spheres along with its invadopodia (outer area) were measured. The percent difference between the outer area and the inner area was graphed to understand the extent of invasion in each cell type at different time points. The obtained areas for all the spheres were graphed. Spheres of similar areas were selected, whereas the outliers were eliminated so as to compare the spheres of similar volumes.

MP1 cells [2] = assay: Apoptosis by annexin V and PI flow cytometry; format: cell-based, human
Experimental: as §1

H1299 cells [3] = assay: Glycolysis: ECAR (Seahorse) and lactic acid levels; format: cell-based, human
Experimental: Cells, reagents, antibodies, primers. The H1299 cell lines and other cell lines employed in this study were obtained from ATCC or from the tissue culture core facility at LCCC. Cells were grown in Dulbecco's Modified Eagle's Medium (DMEM, 25 mM glucose, with glutamine and pyruvate from Invitrogen; Carlsbad, CA) and supplemented with 10% fetal calf serum (FCS). […] The SLC25A1 specific shRNA vectors were purchased from Sigma. The vector expressing human SLC25A1 untagged or Flag-Myc epitope tagged were from Origene; Rockville, MD (#SC120727 and RC200657, respectively). The anti-SLC25A1 antibody used in immuno-blot was from Santa Cruz Biotech, #sc-86392 employed at 1:1000 dilution. Citrate, lactate, and PFK measurements were performed by using commercially available kits (Biovision (Milpitas, CA)).
Seahorse extracellular flux analyzer experiments. Cells derived from spheres or monolayer cultures were dissociated and plated overnight at 12,000 cells/well in DMEM with 10% FBS, 5 mM glucose, 1 mM pyruvate, 2 mM glutamine.
For the mitochondrial stress test, the media was replaced with DMEM without FBS or bicarbonate, containing 5 mM glucose, 1 mM pyruvate, 2 mM glutamine and placed in a CO2 free incubator at 37° C. for 1 hour, and then transferred to the Xf96 extracellular flux analyzer (Agilent; Santa Clara, CA). The program consisted of 3 measurements of OCR/ECAR before the injection of each drug: oligomycin (0.5 μM final concentration), FCCP (2 μM) and rotenone/antimycin (0.5 μM of each). For the glycolysis stress test, cells were plated overnight as above, and the media was washed twice the following day with DMEM without FBS, bicarbonate, glucose, glutamine or pyruvate, and incubated in this media in a CO2 free incubator with/without drug treatments at 37° C. for 4 hours. There were 3 measurements of OCR/ECAR before each injection: glucose (10 mM final concentration), oligomycin (0.5 […] (50 mM). For the analysis of glutamine oxidation, the protocol was the same as the glucose stress test, but with glutamine being the only compound injected (final concentration 4 mM) and OCR/ECAR measured for 60 minutes. When spheres were analyzed, they were dissociated with StemPro® Accutase® (Thermo Scientific; Waltham, MA) and plated under the same conditions as above as for the monolayers the day before the assay (H1299 spheres), or in stem cell media (See Stem Cell Media) with the wells coated in 15 μL of 2% geltrex diluted in DMEM:F12 (Thermo Scientific). The results were normalized to cell number.

H1299 cells [4] = assay: Proliferation / viability in monolayer (2D) cultures; format: cell-based, human
Experimental: Cellular proliferation and cytotoxicity assays. The proliferative capacity of cells was assessed by plating cells in triplicate at a concentration of 2,000 to 10,000 cells/well in 96 well plates in triplicate, with or without drug treatment for 48 hours. The cells were then washed with 1×PBS and fixed with cold 100% methanol at−20° C. for 20 minutes. Methanol was washed off and the cells were stained with 0.5% crystal violet dissolved in 25% methanol and water at 4° C. for 20 minutes. The staining was washed off using deionized (DI) water and the plate was dried overnight. On the second day, 100 mM sodium citrate in 50% ethanol and 50% water was added to the wells and absorbance at 550 nm was measured and corrected with readings at 405 nm. In other experiments, cell viability was assessed by trypan blue exclusion and visual count of the live cells was performed.

O=C(O)c1ccccc1NS(=O)(=O)c1ccc(Cl)c([N+](=O)[O-])c1 [CTPI-2]
cell cycle effect in spheres (H1299 spheres): modestly cytostatic
tumor growth inhibition, single agent (MP1 cells [1]; 26 mg/Kg alternate days i.p., GMSC-derived versus monolayer-derived tumors): more effective in inhibiting the growth of GMSC-derived MP1 tumors
body weights (MP1 cells [1]; 26 mg/Kg at alternate days intra-peritoneally): remained unchanged
tolerability (MP1 cells [1]; 26 mg/Kg at alternate days intra-peritoneally, entire treatment period): well tolerated
tumor growth inhibition, combination (MP1 cells [1]; CTPI-2 added to the cisplatin regimen): very significant
stem cell markers in tumors (immuno-blot) (MP1 cells [1]; GMSC-derived tumors (FIG. 7F)): dramatic reduction
tumor doubling times (MP1 cells [1]; relative to mock- and cisplatin-treated groups): significantly extended the tumor doubling times
tumor growth inhibition, combination (MP2 cells): prominent enhancement of tumor growth inhibition
matrix invasion (MP1 tumor spheres): completely reverted this phenotype
apoptosis (MP1 cells [2]; co-treated with cisplatin and CTPI-2): strong pro-apoptotic effect
apoptosis (MP1 cells [2]; drug alone): did not induce apoptosis
lactic acid levels (H1299 cells [3]; monolayer cultures): increase in lactic acid levels
ECAR rates (H1299 cells [3]; monolayer cultures, after 10 mM glucose injection): starkly induced
ECAR and lactic acid levels (H1299 cells [3]; spheres): remained unchanged or were slightly diminished
proliferation of cells expressing the SLC25A1-shRNA (H1299 cells [4]; SLC25A1-shRNA lentivirus, live cells counted after one week): failed to inhibit proliferation
anti-proliferative activity, ranges of concentrations (H1299 cells [4]; monolayer or methylcellulose single cells (FIG. 3J)): anti-proliferative activity at comparable ranges of concentrations
